Results published in patent US10085983B2, “Azabicyclo derivatives, process for preparation thereof and medical use thereof” (Shanghai Haiyan Pharmaceutical Technology Co., Ltd., priority 2014, dated 2018).

Key:
NIH3T3 cells = experiment: Toxicity test on NIH3T3 cells by MTT assay; format: cell-based
Method: (§1) The steps of the MTT assay were carried out using methods well known to those skilled in the art, and all the reagents used in the methods are commercially available.
(§2) After the first wash, another 1.5 mL of trypsin/EDTA was added to digest the adherent cells until the cells detached. Then 3.5 mL of the culture medium was added to terminate the digestion. The digested cell suspension was transferred to a 15 mL centrifuge tube and centrifuged at 1300 rpm for 3 minutes. The supernatant was discarded and the cells were resuspended in fresh medium. The cells were then counted and diluted to the following concentrations: 27,800 cells per milliliter of H1975 cells, 33,300 cells per milliliter of A431 cells and NIH3T3 cells (purchased from the Cell Bank of the Type Culture Collection Committee, Chinese Academy of Sciences).
(§3) After the drug was added, the cells were incubated in an incubator for 72 hours. 10 μL of 5 mg/ml MTT (Sigma, M5655) solution was added to each well. The 96-well plate was then incubated in a 37° C. and 5% CO2 incubator for 4 h.
(§4) The plate was then centrifuged at 2000 rpm for 5 min. After the supernatant was removed, 150 μl of DMSO was added to each well and the plate was shaken in a shaker until all crystal violet was dissolved.

H1975 cells = experiment: Cell growth inhibition by MTT assay, H1975 cells; format: cell-based; conditions: for IC50: MTT assay, 72 hours; for Selective inhibitory activity against cell growth [IC50 (A431 cell)/IC50 (H1975 cell)]: ratio of MTT IC50 values;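 as to all read-outs here: MTT read-out in 96-well plates after 72 h compound exposure of H1975 and A431 cells, with selectivity given as the A431 IC50 divided by the H1975 IC50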
Method: as §1, §2, §3, §4

[1] = biological target: T790M/L858R double mutant EGFR kinase (Homo sapiens (Human), UniProt P00533, L858R/T790M); experiment: z'-lyte assay of inhibitory activity on T790M/L858R double mutant EGFR kinase; format: biochemical; conditions: for Selective inhibitory activity against enzymes [IC50 (EGFR WT)/IC50 (T790M/L858R)]: ratio of enzyme IC50 values; for IC50: z'-lyte assay, 25 μM ATP
T790M/L858R double mutant EGFR kinase, sequence (P00533 25-1210 T790M/L858R): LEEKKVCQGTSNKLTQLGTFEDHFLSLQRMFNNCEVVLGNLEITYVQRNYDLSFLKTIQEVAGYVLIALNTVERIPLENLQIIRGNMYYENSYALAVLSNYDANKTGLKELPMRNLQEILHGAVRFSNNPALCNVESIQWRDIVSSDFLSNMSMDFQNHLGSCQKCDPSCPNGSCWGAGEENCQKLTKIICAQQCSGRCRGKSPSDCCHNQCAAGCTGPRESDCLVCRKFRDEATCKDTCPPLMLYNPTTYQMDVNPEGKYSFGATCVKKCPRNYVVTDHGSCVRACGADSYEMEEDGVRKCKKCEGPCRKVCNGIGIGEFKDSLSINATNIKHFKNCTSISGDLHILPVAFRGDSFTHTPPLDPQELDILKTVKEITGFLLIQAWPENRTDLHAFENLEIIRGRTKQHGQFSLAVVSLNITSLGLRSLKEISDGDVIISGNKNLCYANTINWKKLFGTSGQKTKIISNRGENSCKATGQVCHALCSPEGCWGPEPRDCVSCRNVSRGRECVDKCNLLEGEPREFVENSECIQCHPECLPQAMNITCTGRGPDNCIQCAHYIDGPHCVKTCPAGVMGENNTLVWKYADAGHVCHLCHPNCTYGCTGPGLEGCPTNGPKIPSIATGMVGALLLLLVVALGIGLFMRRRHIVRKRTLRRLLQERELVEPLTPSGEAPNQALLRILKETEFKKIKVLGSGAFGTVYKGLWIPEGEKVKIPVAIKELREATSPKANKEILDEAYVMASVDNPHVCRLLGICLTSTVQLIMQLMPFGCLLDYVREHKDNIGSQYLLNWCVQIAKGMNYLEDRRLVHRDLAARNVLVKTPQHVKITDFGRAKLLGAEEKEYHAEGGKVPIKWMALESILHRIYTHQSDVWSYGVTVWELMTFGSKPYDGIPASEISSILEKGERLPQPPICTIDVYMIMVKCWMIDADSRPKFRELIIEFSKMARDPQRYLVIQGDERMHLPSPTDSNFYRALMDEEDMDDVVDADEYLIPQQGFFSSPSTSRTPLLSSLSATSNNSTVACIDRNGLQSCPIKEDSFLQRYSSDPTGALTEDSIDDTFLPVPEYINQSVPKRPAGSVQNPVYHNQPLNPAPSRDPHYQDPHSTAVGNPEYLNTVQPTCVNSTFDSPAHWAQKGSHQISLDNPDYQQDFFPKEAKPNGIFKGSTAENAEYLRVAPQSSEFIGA

wild-type EGFR kinase = wild-type EGFR kinase (Homo sapiens (Human), UniProt P00533); conditions: read-out: EGFR WT (IC50/μM); z'-lyte assay, 10 μM ATP
wild-type EGFR kinase, sequence (P00533 25-1210): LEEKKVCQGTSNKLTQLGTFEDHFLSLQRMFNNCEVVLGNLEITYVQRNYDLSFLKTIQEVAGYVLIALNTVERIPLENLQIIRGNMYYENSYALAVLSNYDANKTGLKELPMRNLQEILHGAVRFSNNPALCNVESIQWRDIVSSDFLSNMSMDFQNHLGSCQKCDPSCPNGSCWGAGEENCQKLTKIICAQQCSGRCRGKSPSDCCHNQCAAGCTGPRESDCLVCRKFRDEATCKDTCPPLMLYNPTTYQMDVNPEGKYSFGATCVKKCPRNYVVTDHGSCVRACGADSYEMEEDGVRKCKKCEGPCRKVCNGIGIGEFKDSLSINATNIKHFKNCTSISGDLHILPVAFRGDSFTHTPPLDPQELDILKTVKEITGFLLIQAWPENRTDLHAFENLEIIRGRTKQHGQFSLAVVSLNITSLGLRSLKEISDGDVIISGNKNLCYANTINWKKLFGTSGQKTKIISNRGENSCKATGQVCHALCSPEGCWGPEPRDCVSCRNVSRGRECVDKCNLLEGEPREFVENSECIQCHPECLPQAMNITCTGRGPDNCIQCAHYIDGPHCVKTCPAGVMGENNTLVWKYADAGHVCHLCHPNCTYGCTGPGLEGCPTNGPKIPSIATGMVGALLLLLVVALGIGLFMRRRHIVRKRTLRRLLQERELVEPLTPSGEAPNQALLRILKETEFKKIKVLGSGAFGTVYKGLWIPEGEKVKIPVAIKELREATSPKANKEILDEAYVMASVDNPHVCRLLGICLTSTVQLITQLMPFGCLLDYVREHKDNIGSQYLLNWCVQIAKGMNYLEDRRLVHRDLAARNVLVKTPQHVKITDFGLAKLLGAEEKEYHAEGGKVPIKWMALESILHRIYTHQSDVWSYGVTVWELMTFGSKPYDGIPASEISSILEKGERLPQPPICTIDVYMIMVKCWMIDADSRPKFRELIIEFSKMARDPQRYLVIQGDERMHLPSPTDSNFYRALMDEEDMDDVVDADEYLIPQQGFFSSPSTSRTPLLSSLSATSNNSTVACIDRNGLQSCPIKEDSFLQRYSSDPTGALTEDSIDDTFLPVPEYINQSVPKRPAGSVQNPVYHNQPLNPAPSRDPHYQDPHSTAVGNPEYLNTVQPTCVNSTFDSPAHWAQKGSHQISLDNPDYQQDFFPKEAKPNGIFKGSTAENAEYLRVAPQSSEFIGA
Method: All reagents used in the following z′-lyte assay were purchased from Invitrogen.
The working concentrations of each component in 10 μL wild-type EGFR kinase reaction system were: 10 μM ATP, 0.8 ng/μL wild-type EGFR kinase, 2 μM Tyr04 substrate (Invitrogen, PV3193). The concentration of DMSO after addition of the compound to be tested was 2 vol %.
10 mM drug stock solution was dissolved at room temperature and gradiently diluted to a final concentration of 4-0.002 μM with 8 vol % DMSO solution. […] Then 2.5 μl of ATP was added to initiate the reaction. Wherein, ATP was replaced by the reaction buffer in well C1, no drug was added to well C2, and the phosphorylated substrate was added to well C3 according to the instructions. The mixture was allowed to react at 25° C. in a shaker in dark for 60 min. 5 μL of Development Reagent B (Invitrogen, diluted with TR-FRET dilution buffer) was added and allowed to react at room temperature in the shaker for 60 minutes.
The inhibition rate was calculated according to the following method (refer to the instructions of Invitrogen, PV3193):
1. ER=Coumarin Emission (450 nm)/Fluorescein Emission (520 nm)
The half-inhibitory concentration IC50 was obtained through fitting calculation by using XLFIT 5.0 software (IDBS, UK).

A431 cells = experiment: Cell growth inhibition by MTT assay, A431 cells; format: cell-based; conditions: 72 hours
Method: as §1, §2, §3, §4

Structure (SMILES) | IC50 (NIH3T3 cells; Mus musculus, NIH3T3, 72 hours) [µM] | IC50 (H1975 cells; Homo sapiens, NCI-H1975) [µM] | Selective inhibitory activity against enzymes [IC50 (EGFR WT)/IC50 (T790M/L858R)] [1] | IC50 [1] [µM] | IC50 (wild-type EGFR kinase) [µM] | IC50 (NIH3T3 cells; 72 hours) [µM] | IC50 (A431 cells) [µM] | IC50 (H1975 cells) [µM] | Selective inhibitory activity against cell growth [IC50 (A431 cell)/IC50 (H1975 cell)] (H1975 cells)
CN(C)C/C=C/C(=O)Nc1cc2c(Nc3ccc(F)c(Cl)c3)ncnc2cc1O[C@H]1CCOC1 [BIBW2992, alfatinib, reference compound] | 2.75 | 0.088 |  |  |  |  |  |  | 
C=CC(=O)Nc1cc(Nc2ncc3ccc(-c4cnc5c(ccn5C)c4)n3n2)c(OC)cc1N(C)CCN(C)C [Compound J-7, N-(2-((2-(dimethylamino)ethyl)(methyl)amino)-4-methoxy-5-(7-(1-methyl-1H-pyrrolo[2,3-b]pyridin-5-yl)pyrrolo[1,2-f][1,2,4]triazin-2-ylamino)phenyl)acrylamide] |  |  | 2.5 | 0.002 | 0.005 | 3.38 | 0.231 | 0.01 | 23.1
C=CC(=O)Nc1cc(Nc2ncc3ccc(-c4cnc5ccccc5c4)n3n2)c(OC)cc1N(C)CCN(C)C [Compound J-10, N-(2-((2-(dimethylamino)ethyl)(methyl)amino)-4-methoxy-5-(7-(quinolin-3-yl)pyrrolo[1,2-f][1,2,4]triazin-2-ylamino)phenyl)acrylamide] |  |  | 3 | 0.001 | 0.003 | 3.27 | 0.147 | 0.009 | 16.3
C=CC(=O)Nc1cc(Nc2ncc3ccc(C)n3n2)c(OC)cc1N1CCC(N(C)C)CC1 [Compound J-14, N-(2-(4-(dimethylamino)piperidin-1-yl)-4-methoxy-5-(7-methylpyrrolo[1,2-f][1,2,4]triazin-2-ylamino)phenyl)acrylamide] |  |  |  |  |  | 7.77 | 3.56 | 0.126 | 
C=CC(=O)Nc1cc(Nc2ncc3ccc(C4CC4)n3n2)c(OC)cc1N1CCC(N(C)C)CC1 [Compound J-15, N-(5(7-cyclopropylpyrrolo[1,2-f][1,2,4]triazin-2-ylamino)-2-(4-(dimethylamino)piperidin-1-yl)-4-methoxyphenyl)acrylamide] |  |  | 3.8 | 0.262 | > 1 |  |  |  | 
C=CC(=O)Nc1cc(Nc2cn3c(-c4cnn(C)c4)cnc3cn2)c(OC)cc1N(C)CCN(C)C [Compound J-18, N-(2-((2-(dimethylamino)ethyl)(methyl)amino)-4-methoxy-5-(3(-methyl-1H-pyrazol-4-yl)imidazo[1,2-α]pyrazin-6-ylamino)phenyl)acrylamide] |  |  |  |  |  | > 10 | 1.56 | 0.251 | 6.2
C=CC(=O)Nc1cc(Nc2ncc3c(C)cc(-c4cnn(C)c4)n3n2)c(OC)cc1N(C)CCN(C)C [Compound J-20, N-(2-((2-(dimethylamino)ethyl)(methyl)amino)-4-methoxy-5-(5-methyl-7-(1-methyl-1H-pyrazol-4-yl)pyrrolo[1,2-F][1,2,4]triazin-2-ylamino)phenyl)acrylamide] |  |  | 24.5 | 0.012 | 0.294 |  |  |  | 
C=CC(=O)Nc1cc(Nc2ncc3c(C)cc(-c4cnn(C)c4)n3n2)c(OC)cc1N1CCC(N(C)C)CC1 [Compound J-21, N-(2-(4-(dimethylamino)piperidin-1-yl)-4-methoxy-5-(5-methyl-7-(1-methyl-1H-pyrazol-4-yl)pyrrolo[1,2-F][1,2,4]triazin-2-ylamino)phenyl)acrylamide] |  |  | 3.4 | 0.294 | > 1 |  |  |  | 
